Laboratory results as given in patent US11834460B2, “Imide-based modulators of proteolysis and associated methods of use” (YALE UNIVERSITY, priority 2018, dated 2023).
pIC50: −log10 of the molar value.

Molecular target: T1, androgen receptor (AR) (Homo sapiens, UniProt P10275)
T1 construct: detects endogenous levels of total androgen receptor protein; endogenous in cells; host or cells: VCaP
T1 sequence (P10275 1-920): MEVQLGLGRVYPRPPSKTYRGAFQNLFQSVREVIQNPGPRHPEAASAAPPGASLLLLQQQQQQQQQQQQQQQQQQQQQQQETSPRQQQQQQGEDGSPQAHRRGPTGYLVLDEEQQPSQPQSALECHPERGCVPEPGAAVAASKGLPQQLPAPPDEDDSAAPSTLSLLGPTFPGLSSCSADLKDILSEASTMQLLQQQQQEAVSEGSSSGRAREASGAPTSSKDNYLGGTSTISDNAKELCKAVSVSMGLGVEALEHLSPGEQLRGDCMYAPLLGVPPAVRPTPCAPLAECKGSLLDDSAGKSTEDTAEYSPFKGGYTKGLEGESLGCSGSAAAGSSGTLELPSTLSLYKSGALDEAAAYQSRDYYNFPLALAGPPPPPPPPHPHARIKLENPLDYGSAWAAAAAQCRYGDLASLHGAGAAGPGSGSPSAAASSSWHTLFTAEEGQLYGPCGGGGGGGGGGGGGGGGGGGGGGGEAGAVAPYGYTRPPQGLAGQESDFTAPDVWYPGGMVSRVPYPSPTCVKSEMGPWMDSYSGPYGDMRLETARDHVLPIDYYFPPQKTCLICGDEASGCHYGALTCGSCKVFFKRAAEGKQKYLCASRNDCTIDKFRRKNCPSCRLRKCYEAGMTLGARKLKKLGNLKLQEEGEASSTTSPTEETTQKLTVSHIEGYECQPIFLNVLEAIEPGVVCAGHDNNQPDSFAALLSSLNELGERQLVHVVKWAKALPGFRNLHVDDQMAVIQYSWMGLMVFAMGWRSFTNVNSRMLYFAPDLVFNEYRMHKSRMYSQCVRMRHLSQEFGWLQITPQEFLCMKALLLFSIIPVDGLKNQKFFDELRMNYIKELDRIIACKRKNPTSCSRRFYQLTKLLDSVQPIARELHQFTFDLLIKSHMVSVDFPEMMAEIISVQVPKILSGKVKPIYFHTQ
Assay: AR ELISA protocol, degradation in VCaP cells
Format: cell-based
Parameters: Dmax: dose or concentration left out as unconfirmed
Settings: 1 uM, 16 h
Experimental: (§1) In each bioassay, cells were treated with varying amounts of compounds encompassed by the present disclosure, as shown in Table 1. The degradation of the following proteins were evaluated in this study: TANK-binding kinase 1 (TBK1), estrogen receptor α (ERα), bromodomain-containing protein 4 (BRD4), androgen receptor (AR), and c-Myc.
VCaP cells were purchased from ATCC and cultured in Dulbecco's Modified Eagle's Medium (ATCC), supplemented with 10% FBS (ATCC) and Penicillin/Streptomycin (Life Technologies). DMSO control and compound treatments (0.0001 μM-1 μM) were performed in 96-well plates for 16 h. Cells were harvested, and lysed with Cell Lysis Buffer (Catalog #9803) (20 mM Tris-HCL (pH 7.5), 150 mM NaCl, 1 mM Na2EDTA, 1 mM EGTA, 1% Triton, 2.5 mM sodium pyrophosphate, 1 mM B-glycerophosphate, 1 mM Na3VO4, 1 ug/ml leupeptin. Lysates were clarified at 16,000 g for 10 minutes, and loaded into the PathScan AR ELISA (Cell Signaling Catalog #12850). The PathScan® Total Androgen Receptor Sandwich ELISA Kit is a solid phase sandwich enzyme-linked immunosorbent assay (ELISA) that detects endogenous levels of total androgen receptor protein. An Androgen Receptor Rabbit mAb has been coated onto the microwells. After incubation with cell lysates, androgen receptor protein is captured by the coated antibody. Following extensive washing, an Androgen Receptor Mouse Detection mAb is added to detect the captured androgen receptor protein. Anti-mouse IgG, HRP-linked Antibody is then used to recognize the bound detection antibody. HRP substrate, TMB, is added to develop color. The magnitude of absorbance for the developed color is proportional to the quantity of total androgen receptor protein. Antibodies in kit are custom formulations specific to kit.

SMILES	Dmax at 1 µM
CC1(C)C(=O)N(c2ccc(C#N)c(C(F)(F)F)c2)C(=S)N1c1ccc(OCCOCCOCCOCCNc2cccc3c2C(=O)N([C@H]2CCC(=O)NC2=O)C3=O)cc1 [Compound 4, (S)-4-(3-(4-(2-(2-(2-(2-((2-(2,6-dioxopiperidin-3-yl)-1,3-dioxoisoindolin-4-yl)amino)ethoxy)ethoxy)ethoxy)ethoxy)phenyl)-4,4-dimethyl-5-oxo-2-thioxoimidazolidin-1-yl)-2-(trifluoromethyl) benzonitrile]	31 to 50%
CC1(C)C(=O)N(c2ccc(C#N)c(C(F)(F)F)c2)C(=S)N1c1ccc(OCCOCCOCCNc2cccc3c2C(=O)N(C2CCC(=O)NC2=O)C3=O)cc1 (stereo not shown) [Compound 8, 4-(3-(4-(2-(2-(2-((2-(2,6-dioxopiperidin-3-yl)-1,3-dioxoisoindolin-4-yl)amino)ethoxy)ethoxy)ethoxy)phenyl)-4,4-dimethyl-5-oxo-2-thioxoimidazolidin-1-yl)-2-(trifluoromethyl) benzonitrile]	10 to 30%
CC1(C)[C@H](NC(=O)c2ccc(OCCCCCOCCCNc3cccc4c3C(=O)N(C3CCC(=O)NC3=O)C4=O)cc2)C(C)(C)[C@H]1Oc1ccc(C#N)c(Cl)c1 (stereo partly shown) [Compound 11]	> 50%
CC1(C)C(=O)N(c2ccc(C#N)c(C(F)(F)F)c2)C(=S)N1c1ccc(OCCOCCOCCOCCNc2cccc3c2C(=O)N(C2CCC(=O)NC2=O)C3=O)cc1 (stereo not shown) [Compound 3, 4-(3-(4-(2-(2-(2-(2-((2-(2,6-dioxopiperidin-3-yl)-1,3-dioxoisoindolin-4-yl)amino)ethoxy)ethoxy)ethoxy)ethoxy)phenyl)-4,4-dimethyl-5-oxo-2-thioxo-imidazolidin-1-yl)-2-(trifluoromethyl) benzonitrile]	31 to 50%
CC1(C)C(=O)N(c2ccc(C#N)c(C(F)(F)F)c2)C(=S)N1c1ccc(OCCCOCCCOCCNc2cccc3c2C(=O)N(C2CCC(=O)NC2=O)C3=O)cc1 (stereo not shown) [Compound 2]	31 to 50%
CC1(C)C(=O)N(c2ccc(C#N)c(C(F)(F)F)c2)C(=S)N1c1ccc(OCCCOCCOCCNc2cccc3c2C(=O)N(C2CCC(=O)NC2=O)C3=O)cc1 (stereo not shown) [Compound 9, 4-(3-(4-(3-(2-(2-((2-(2,6-dioxopiperidin-3-yl)-1,3-dioxoisoindolin-4-yl)amino)ethoxy)ethoxy)propoxy)phenyl)-4,4-dimethyl-5-oxo-2-thioxoimidazolidin-1-yl)-2-(trifluoromethyl) benzonitrile]	10 to 30%
CC1(C)C(=O)N(c2ccc(C#N)c(C(F)(F)F)c2)C(=S)N1c1ccc(OCCOCCNc2cccc3c2C(=O)N(C2CCC(=O)NC2=O)C3=O)cc1 (stereo not shown) [Compound 7, 4-(3-(4-(2-(2-((2-(2,6-dioxopiperidin-3-yl)-1,3-dioxoisoindolin-4-yl)amino)ethoxy)ethoxy)phenyl)-4,4-dimethyl-5-oxo-2-thioxoimidazolidin-1-yl)-2-(trifluoromethyl) benzonitrile]	10 to 30%

Same assay, conditions: 16 h

SMILES	Dmax
CC1(C)C(=O)N(c2ccc(C#N)c(C(F)(F)F)c2)C(=S)N1c1ccc(OCCCOCCOCCOCCNc2cccc3c2C(=O)N(C2CCC(=O)NC2=O)C3=O)cc1 (stereo not shown) [Compound 1, 4-(3-(4-(3-(2-(2-(2-((2-(2,6-dioxopiperidin-3-yl)-1,3-dioxoisoindolin-4-yl)amino)ethoxy)ethoxy)ethoxy)propoxy)phenyl)-4,4-dimethyl-5-oxo-2-thioxoimidazolidin-1-yl)-2-(trifluoromethyl) benzonitrile]	10 to 30%
CC1(C)C(=O)N(c2ccc(C#N)c(C(F)(F)F)c2)C(=S)N1c1ccc(OCCCOCCOCCOCCNc2cccc3c2C(=O)N(C2(C)CCC(=O)NC2=O)C3=O)cc1 (stereo not shown) [Compound 12, 4-(4,4-dimethyl-3-(4-((1-(2-(3-methyl-2,6-dioxopiperidin-3-yl)-1,3-dioxo-2,3-dihydro-1H-isoindol-4-yl)-4,7,10-trioxa-1-azatridecan-13-yl)oxy)phenyl)-5-oxo-2-sulfanylidene-imidazolidin-1-yl)-2-(trifluoromethyl) benzonitrile]	10 to 30%

System: c-Myc
Assay: c-Myc ELISA assay protocol in 22RV-1 cells
Format: cell-based, human
Settings: 18 h, read-out: cMyc IC50
Experimental: as §1
5. c-Myc ELISA Assay Protocol
22RV-1 cells were purchased from ATCC and cultured in RPMI+10% FBS media. Cells were harvested using trypsin (Gibco #25200-114), counted and seeded at 30,000 cells/well at a volume of 75 μL/well in RPMI +10% FBS media in 96-well plates. The cells were dosed with compounds diluted in 0.1% DMSO, incubated for 18 h then washed and lysed in 50 uL RIPA buffer (50 mM Tris pH8, 150 mM NaCl, 1% Tx-100, 0.1% SDS, 0.5% sodium deoxycholate) supplemented with protease and phosphatase inhibitors. The lysates were clarified at 4000 rpm at 4° C. for 10 minutes then aliquots were added into a 96-well ELISA plate of Novex Human c-myc ELISA kit from Life Technologies Catalog #KHO2041. 50 ul of c-Myc Detection antibody was added into every well, the plates incubated at room temperature for 3 hrs, then washed with ELISA wash buffer. 100 uL of the anti-rabbit IgG-HRP secondary antibody was added to each well and incubated at room temperature for 30 minutes. The plates were washed with ELISA wash buffer, 100 μL TMB added to each well, and then monitored every 5 minutes for a color change. 100 μL of stop solution is added and the plates read at 450 nm.

pIC50	SMILES
> 7.30	Cc1sc2c(c1C)C(c1ccc(Cl)cc1)=N[C@@H](CC(=O)N[C@H]1CCN(C(=O)c3ccc(OCCNc4cccc5c4C(=O)N(C4CCC(=O)NC4=O)C5=O)cc3)C1)c1nnc(C)n1-2 (stereo partly drawn) [Compound 55, 2-[(9S)-7-(4-chlorophenyl)-4,5,13-trimethyl-3-thia-1,8,11,12-tetraazatricyclo [8.3.0.0^2,^6]trideca-2(6),4,7,10,12-pentaen-9-yl]-N-[(3S)-1-[4-(2-{[2-(2,6-dioxopiperidin-3-yl)-1,3-dioxo-2,3-dihydro-1H-isoindol-4-yl]amino}ethoxy)benzoyl]pyrrolidin-3-yl]acetamide]
> 7.30	Cc1sc2c(c1C)C(c1ccc(Cl)cc1)=N[C@@H](CC(=O)N[C@@H](C)c1ccc(-c3ncc(OCCCNc4cccc5c4C(=O)N(C4CCC(=O)NC4=O)C5=O)cn3)cc1)c1nnc(C)n1-2 (stereo partly drawn) [Compound 40, 2-((S)-4-(4-chlorophenyl)-2,3,9-trimethyl-6H-thieno[3,2-f][1,2,4]triazolo[4,3-a][1,4]diazepin-6-yl)-N-((1S)-1-(4-(5-(3-(2-(2,6-dioxopiperidin-3-yl)-1,3-dioxoisoindolin-4-ylamino)propoxy)pyrimidin-2-yl)phenyl)ethyl)acetamide]
< 7.30	Cc1sc2c(c1C)C(c1ccc(Cl)cc1)=N[C@@H](CC(=O)N[C@H](C)c1cccc(OCCNc3cccc4c3CN(C3CCC(=O)NC3=O)C4=O)c1)c1nnc(C)n1-2 (stereo partly drawn) [Compound 60, 2-[(9S)-7-(4-chlorophenyl)-4,5,13-trimethyl-3-thia-1,8,11,12-tetraazatricyclo [8.3.0.0^2,^6]trideca-2(6),4,7,10,12-pentaen-9-yl]-N-[(1R)-1-[3-(2-{[2-(2,6-dioxopiperidin-3-yl)-1-oxo-2,3-dihydro-1H-isoindol-4-yl]amino}ethoxy)phenyl]ethyl] acetamide]

SMILES	pIC50
Cc1sc2c(c1C)C(c1ccc(Cl)cc1)=N[C@@H](CC(=O)NCCCNc1cccc3c1C(=O)N(C1CCC(=O)NC1=O)C3=O)c1nnc(C)n1-2 (stereo partly drawn) [Compound 25, 2-((9S)-7-(4-chlorophenyl)-4,5,13-trimethyl-3-thia-1,8,11,12-tetraazatricyclo [8.3.0.02,6]trideca-2(6),4,7,10,12-pentaen-9-yl)-N-(3-((2-(2,6-dioxopiperidin-3-yl)-1,3-dioxo-2,3-dihydro-1H-isoindol-4-yl)amino)propyl) acetamide]	< 7.30
